Results as given in patent publication US8952021B2, “Compounds for the prevention and treatment of cardiovascular disease” (Resverlogix Corp., priority 2009, dated 2015).

System: ApoA-I mRNA
Test: Quantification of ApoA-I mRNA in HepG2 cells (real-time PCR)
Assay type: cell-based
Set-up: key: Active: An active compound was defined as one that caused a ≧20% increase in ApoA-I mRNA at a concentration less than or equal to 100 μM
Conditions: fold induction relative to DMSO control, concentration less than or equal to 100 μM
Description: In this example, ApoA-I mRNA in tissue culture cells was quantitated to measure the transcriptional up-regulation of ApoA-I when treated with a compound of the invention.
HepG2 cells (approximately 2×10^5 per well) were placed in a 24-well plate in approximately 400 μL MEM, supplemented with 0.5% (v/v) FBS, 24 h before addition of the compound of interest. At time of harvesting, the spent media was removed from the HepG2 cells and immediately placed on ice (for immediate use) or at −80° C. (for future use) in ApoA-I and albumin ELISAs. The cells remaining in the plate wells were rinsed in 200 μL PBS. PBS was carefully removed to avoid removing any loosely attached cells.
Once the PBS was removed, 85 μL cell lysis solution was added the cells in each well and incubated for 5-10 minutes at room temperature, to allow for complete cell lysis and detachment. mRNA was then prepared using the “mRNA Catcher PLUS plate” from Invitrogen, according to the protocol supplied. After the last wash, as much wash buffer as possible was aspirated without allowing the wells to dry. Elution Buffer (E3, 80 μL) was then added to each well. mRNA was then eluted by incubating the mRNA Catcher PLUS plate with Elution Buffer for 5 minutes at 68° C. and then immediately placing the plate on ice.
The eluted mRNA isolated was then used in a one-step real-time […] reaction, using components of the Ultra Sense Kit together with Applied Biosystems primer-probe mixes. Real-time PCR data was analyzed, using the Ct values, to determine the fold induction of each unknown sample, relative to the control (that is, relative to the control for each independent DMSO concentration).
An active compound was defined as one that caused a ≧20% increase in ApoA-I mRNA at a concentration less than or equal to 100 μM.

Compound | Effect on ApoA-I mRNA levels
O=c1c2ccccc2nc(-c2ccc(C(F)(F)F)nc2)n1-c1ccc(Cl)cc1 [Example 53, 3-(4-chlorophenyl)-2-(6-(trifluoromethyl)pyridin-3-yl)quinazolin-4(3H)-one] | Active
CCC(C)c1ccc(-n2c(-c3ccc(C(F)(F)F)nc3)nc3ccccc3c2=O)cc1 (centres unmarked) [Example 54, 3-(4-sec-butylphenyl)-2-(6-(trifluoromethyl)pyridin-3-yl)quinazolin-4(3H)-one] | Active
CCC(C)c1ccc(-n2c(-c3ccc(-c4ccccc4)nc3)nc3ccccc3c2=O)cc1 (centres unmarked) [Example 55, 3-(4-sec-butylphenyl)-2-(6-phenylpyridin-3-yl)quinazolin-4(3H)-one] | Active
CCC(C)c1ccc(-n2c(-c3cncc(-c4ccccc4)c3)nc3ccccc3c2=O)cc1 (centres unmarked) [Example 56, 3-(4-sec-butylphenyl)-2-(5-phenylpyridin-3-yl)quinazolin-4(3H)-one] | Active
CCC(C)c1ccc(-n2c(-c3cncc(Br)c3)nc3ccccc3c2=O)cc1 (centres unmarked) [Example 57, 2-(5-bromopyridin-3-yl)-3-(4-sec-butylphenyl)quinazolin-4(3H)-one] | Active
O=c1c2ccccc2nc(-c2cncc(Br)c2)n1-c1ccc(Cl)cc1 [Example 58, 2-(5-bromopyridin-3-yl)-3-(4-chlorophenyl)quinazolin-4(3H)-one] | Active
CCC(C)c1ccc(-n2c(-c3cncc(N(CC)CC)c3)nc3ccccc3c2=O)cc1 (centres unmarked) [Example 59, 3-(4-sec-butylphenyl)-2-(5-(diethylamino)pyridin-3-yl)quinazolin-4(3H)-one] | Active
O=c1c2ccccc2nc(-c2cncc(-c3ccccc3)c2)n1-c1ccc(Cl)cc1 [Example 60, 3-(4-chlorophenyl)-2-(5-phenylpyridin-3-yl)quinazolin-4(3H)-one] | Active
CCN(CC)c1cncc(-c2nc3ccccc3c(=O)n2-c2ccc(Cl)cc2)c1 [Example 61, 3-(4-chlorophenyl)-2-(5-(diethylamino)pyridin-3-yl)quinazolin-4(3H)-one] | Active
Cc1ccc(-c2nc3ccccc3c(=O)n2-c2ccc(C3CCCC3)cc2)cn1 [Example 62, 3-(4-cyclopentylphenyl)-2-(6-methylpyridin-3-yl)quinazolin-4(3H)-one] | Active
CCC(C)c1ccc(-n2c(-c3ccc(CO)nc3)nc3ccccc3c2=O)cc1 (centres unmarked) [Example 63, 3-(4-sec-butylphenyl)-2-(6-(hydroxymethyl)pyridin-3-yl)quinazolin-4(3H)-one] | Active
CSc1ccc(-n2c(-c3ccc(C)nc3)nc3ccccc3c2=O)cc1 [Example 64, 2-(6-methylpyridin-3-yl)-3-(4-(methylthio)phenyl)quinazolin-4(3H)-one] | Active
Cc1ccc(-c2nc3ccccc3c(=O)n2-c2ccc(C(C)C)cc2)cn1 [Example 65, 3-(4-isopropylphenyl)-2-(6-methylpyridin-3-yl)quinazolin-4(3H)-one] | Active
Cc1ccc(-c2nc3ccccc3c(=O)n2-c2ccc(NS(C)(=O)=O)cc2)cn1 [Example 66, N-(4-(2-(6-methylpyridin-3-yl)-4-oxoquinazolin-3(4H)-yl)phenyl)methanesulfonamide] | Active
CCC(C)c1ccc(-n2c(-c3ccc(CN4CCOCC4)nc3)nc3ccccc3c2=O)cc1 (centres unmarked) [Example 67, 3-(4-sec-butylphenyl)-2-(6-(morpholinomethyl)pyridin-3-yl)quinazolin-4(3H)-one] | Active
Cc1ccc(-c2nc3ccccc3c(=O)n2-c2ccc(C3CC3)cc2)cn1 [Example 68, 3-(4-cyclopropylphenyl)-2-(6-methylpyridin-3-yl)quinazolin-4(3H)-one] | Active
Cc1ccc(-c2nc3ccccc3c(=O)n2-c2ccc(N(C)C)cc2)cn1 [Example 69, 3-(4-(dimethylamino)phenyl)-2-(6-methylpyridin-3-yl)quinazolin-4(3H)-one] | Active
O=c1c2ccccc2nc(-c2ccc(Cl)nc2)n1-c1ccc(C2CC2)cc1 [Example 70, 2-(6-chloropyridin-3-yl)-3-(4-cyclopropylphenyl)quinazolin-4(3H)-one] | Active
CCC(C)c1ccc(-n2c(-c3ccc(N4CCOCC4)nc3)nc3ccccc3c2=O)cc1 (centres unmarked) [Example 71, 3-(4-sec-butylphenyl)-2-(6-morpholinopyridin-3-yl)quinazolin-4(3H)-one] | Active
CCC(C)c1ccc(-n2c(-c3ccc4[nH]ncc4c3)nc3ccccc3c2=O)cc1 (centres unmarked) [Example 72, 3-(4-sec-butylphenyl)-2-(1H-indazol-5-yl)quinazolin-4(3H)-one] | Active
O=c1c2ccccc2nc(-c2ccc3[nH]ccc3c2)n1-c1ccc(Cl)cc1 [Example 73, 3-(4-chlorophenyl)-2-(1H-indol-5-yl)quinazolin-4(3H)-one] | Active
CCC(C)c1ccc(-n2c(-c3ccc4[nH]ccc4c3)nc3ccccc3c2=O)cc1 (centres unmarked) [Example 74, 3-(4-sec-butylphenyl)-2-(1H-indol-5-yl)quinazolin-4(3H)-one] | Active
CCC(C)c1ccc(-n2c(-c3ccc4nc(CO)[nH]c4c3)nc3ccccc3c2=O)cc1 (centres unmarked) [Example 75, 3-(4-sec-butylphenyl)-2-(2-(hydroxymethyl)-1H-benzo[d]imidazol-6-yl)quinazolin-4(3H)-one] | Active
O=c1c2ccccc2nc(-c2ccc3[nH]ccc3c2)n1-c1ccc(OC(F)(F)F)cc1 [Example 76, 2-(1H-indol-5-yl)-3-(4-(trifluoronnethoxy)phenyl)quinazolin-4(3H)-one] | Active
CC(C)c1ccc(-n2c(-c3ccc4[nH]ccc4c3)nc3ccccc3c2=O)cc1 [Example 77, 2-(1H-indol-5-yl)-3-(4-isopropylphenyl)quinazolin-4(3H)-one] | Active
COc1ccc(S(=O)(=O)n2ccc3cc(-c4nc5ccccc5c(=O)n4-c4ccc(Cl)cc4)cnc32)cc1 [Example 78, 3-(4-chlorophenyl)-2-(1-(4-methoxyphenylsulfonyl)-1H-pyrrolo[2,3-b]pyridin-5-yl)quinazolin-4(3H)-one] | Active
O=c1c2ccccc2nc(-c2cnc3c(ccn3S(=O)(=O)c3ccc(F)cc3)c2)n1-c1ccc(Cl)cc1 [Example 79, 3-(4-chlorophenyl)-2-(1-(4-fluorophenylsulfonyl)-1H-pyrrolo[2,3-b]pyridin-5-yl)quinazolin-4(3H)-one] | Active
CN(C)c1ccc(-n2c(-c3ccc4[nH]ccc4c3)nc3ccccc3c2=O)cc1 [Example 80, 3-(4-(dimethylamino)phenyl)-2-(1H-indol-5-yl)quinazolin-4(3H)-one] | Active
O=c1c2ccccc2nc(-c2cnc3c(ccn3S(=O)(=O)c3ccccc3)c2)n1-c1ccc(Cl)cc1 [Example 81, 3-(4-chlorophenyl)-2-(1-(phenylsulfonyl)-1H-pyrrolo[2,3-b]pyridin-5-yl)quinazolin-4(3H)-one] | Active
